{"source": "ChEMBL document CHEMBL1140731", "about": "(J Med Chem, 2008)", "key": {"[1]": {"target": "Transient receptor potential cation channel subfamily V member 1 (Homo sapiens, UniProt Q8NER1)", "sequence (Q8NER1 whole entry)": "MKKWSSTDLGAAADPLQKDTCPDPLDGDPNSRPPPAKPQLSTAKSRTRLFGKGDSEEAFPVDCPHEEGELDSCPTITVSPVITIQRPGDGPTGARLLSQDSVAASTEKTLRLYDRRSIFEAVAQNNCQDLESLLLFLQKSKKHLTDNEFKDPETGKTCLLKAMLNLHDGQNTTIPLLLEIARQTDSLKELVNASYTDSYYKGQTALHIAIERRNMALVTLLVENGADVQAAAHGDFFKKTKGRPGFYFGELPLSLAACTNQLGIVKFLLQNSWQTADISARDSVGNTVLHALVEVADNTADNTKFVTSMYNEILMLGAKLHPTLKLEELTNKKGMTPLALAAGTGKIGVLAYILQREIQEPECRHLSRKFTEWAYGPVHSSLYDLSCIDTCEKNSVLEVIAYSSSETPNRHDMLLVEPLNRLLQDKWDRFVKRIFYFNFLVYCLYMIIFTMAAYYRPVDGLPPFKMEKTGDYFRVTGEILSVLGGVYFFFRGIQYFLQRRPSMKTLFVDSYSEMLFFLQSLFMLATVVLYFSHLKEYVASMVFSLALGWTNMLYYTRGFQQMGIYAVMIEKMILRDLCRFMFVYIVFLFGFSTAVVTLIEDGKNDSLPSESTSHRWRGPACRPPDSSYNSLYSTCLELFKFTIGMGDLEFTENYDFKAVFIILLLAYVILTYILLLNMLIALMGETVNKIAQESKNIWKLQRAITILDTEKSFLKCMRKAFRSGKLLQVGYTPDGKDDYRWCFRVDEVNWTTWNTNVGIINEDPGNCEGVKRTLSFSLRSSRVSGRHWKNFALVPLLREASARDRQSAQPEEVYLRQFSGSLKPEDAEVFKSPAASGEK", "assay": "Blockade of human TRPV1 receptor assessed as inhibition of capsaicin-induced calcium flux"}, "[2]": {"assay": "Oral bioavailability in monkey at 10 umol/kg administered in PEG400", "assay_type": "ADME, organism-based, Macaca mulatta", "conditions": "rhesus monkey, in vivo"}, "[3]": {"assay": "Cmax in dog at 5 umol/kg, po administered in oleic acid/cremophor/PEG400 (80:10:10)", "conditions": "in vivo"}, "[4]": {"assay": "Oral bioavailability in dog at 5 umol/kg administered in oleic acid/cremophor/PEG400 (80:10:10)", "conditions": "in vivo"}, "[5]": {"assay": "Cmax in rat at 10 umol/kg, po administered in PEG400", "assay_type": "ADME, organism-based", "set-up": "dose 10 umol/kg, route oral", "conditions": "in vivo"}, "[6]": {"assay": "Oral bioavailability in rat at 10 umol/kg administered in PEG400", "assay_type": "ADME, organism-based", "conditions": "in vivo"}, "[7]": {"assay": "Oral bioavailability in dog at 5 umol/kg administered in PEG400", "conditions": "in vivo"}, "[8]": {"assay": "Ratio of drug level in brain to plasma in Sprague-Dawley rat", "assay_type": "ADME", "conditions": "read-out: BPR"}, "[9]": {"assay": "Half life in rat at 10 umol/kg, iv administered in PEG400", "assay_type": "ADME, organism-based", "conditions": "in vivo"}, "[10]": {"assay": "Permeability across human Caco-2 cells", "assay_type": "ADME, cell-based"}, "[11]": {"assay": "Cmax in monkey at 10 umol/kg, po administered in PEG400", "assay_type": "ADME, organism-based, Macaca mulatta", "set-up": "dose 10 umol/kg, route oral", "conditions": "rhesus monkey, in vivo"}, "[12]": {"assay": "Volume of distribution beta in dog at 5 umol/kg, iv administered in PEG400", "assay_type": "ADME, organism-based, Canis lupus familiaris", "conditions": "in vivo, read-out: Vbeta"}, "[13]": {"assay": "Half life in monkey at 5 umol/kg, iv administered in PEG400", "assay_type": "ADME, organism-based, Macaca mulatta", "conditions": "rhesus monkey, in vivo"}, "[14]": {"assay": "Cmax in dog at 5 umol/kg, po administered in PEG400", "conditions": "in vivo"}, "[15]": {"assay": "Aqueous solubility at pH 6.8", "assay_type": "physicochemical", "conditions": "buffer"}, "[16]": {"assay": "Aqueous solubility at pH 1", "assay_type": "physicochemical", "conditions": "buffer"}, "Rattus norvegicus [17]": {"species": "Rattus norvegicus", "assay": "Decrease in carrageenan-induced thermal hyperalgesia in Sprague-Dawley rat", "assay_type": "functional"}, "[18]": {"assay": "Volume of distribution beta in monkey at 5 umol/kg, iv administered in PEG400", "assay_type": "ADME, organism-based, Macaca mulatta", "conditions": "rhesus monkey, in vivo, read-out: Vbeta"}, "[19]": {"assay": "Half life in dog at 5 umol/kg, iv administered in PEG400", "assay_type": "ADME, organism-based, Canis lupus familiaris", "conditions": "in vivo"}, "[20]": {"assay": "Volume of distribution beta in rat at 10 umol/kg, iv administered in PEG400", "assay_type": "ADME, organism-based", "conditions": "in vivo, read-out: Vbeta"}, "Rattus norvegicus [21]": {"system": "Rattus norvegicus", "assay": "Decrease in carrageenan-induced thermal hyperalgesia in Sprague-Dawley rat at 100 umol/kg", "assay_type": "functional, organism-based"}}, "note": "Activity calls are given as the source filed them. The rule behind the calls is not given here."}
{"smiles": "CC(C)(C#N)c1cccc2c1CCC2NC(=O)Nc1cccc2[nH]ncc12", "note": "(stereo unspecified)", "values": [{"measurement": "IC50", "setting": "[1]", "result": 19, "unit": "nM"}]}
{"smiles": "CC(C)(C)c1cccc2c1CCC2NC(=O)Nc1cccc2[nH]ncc12", "note": "(stereo unspecified)", "values": [{"measurement": "IC50", "setting": "[1]", "result": 14, "unit": "nM"}]}
{"smiles": "CC(C)(C)c1ccc2c(c1)CC(F)C2NC(=O)Nc1cccc2[nH]ncc12", "note": "(stereo unspecified)", "values": [{"measurement": "IC50", "setting": "[1]", "result": 35, "unit": "nM"}]}
{"smiles": "Cc1cccc2c1CCC2NC(=O)Nc1cccc2[nH]ncc12", "note": "(stereo unspecified)", "values": [{"measurement": "IC50", "setting": "[1]", "result": 46, "unit": "nM"}]}
{"smiles": "O=C(Nc1cccc2[nH]ncc12)NC1CCc2c(C3CC3)cccc21", "note": "(stereo unspecified)", "values": [{"measurement": "IC50", "setting": "[1]", "result": 5, "unit": "nM"}]}
{"smiles": "O=C(Nc1cccc2[nH]ncc12)NC1CCc2cc(C(F)(F)F)ccc21", "note": "(stereo unspecified)", "values": [{"measurement": "IC50", "setting": "[1]", "result": 3, "unit": "nM"}]}
{"smiles": "O=C(Nc1cccc2[nH]ncc12)NC1CCc2cc(Cl)ccc21", "note": "(stereo unspecified)", "values": [{"measurement": "IC50", "setting": "[1]", "result": 10, "unit": "nM"}]}
{"smiles": "COc1ccc2c(c1)CCC2NC(=O)Nc1cccc2[nH]ncc12", "note": "(stereo unspecified)", "values": [{"measurement": "IC50", "setting": "[1]", "result": 40, "unit": "nM"}]}
{"smiles": "O=C(Nc1cccc2[nH]ncc12)NC1CCc2ncccc21", "note": "(stereo unspecified)", "values": [{"measurement": "IC50", "setting": "[1]", "result": 5820, "unit": "nM"}]}
{"smiles": "Cc1cccc2c1C(NC(=O)Nc1cccc3[nH]ncc13)CC2", "note": "(stereo unspecified)", "values": [{"measurement": "IC50", "setting": "[1]", "result": 595, "unit": "nM"}]}
{"smiles": "Cc1ccc2c(c1)C(NC(=O)Nc1cccc3[nH]ncc13)CC2", "note": "(stereo unspecified)", "values": [{"measurement": "IC50", "setting": "[1]", "result": 7200, "unit": "nM"}]}
{"smiles": "CC(C)(C)c1ccc2c(c1)CC[C@H]2NC(=S)Nc1cccc2[nH]ncc12", "values": [{"measurement": "IC50", "setting": "[1]", "result": 97, "unit": "nM"}]}
{"smiles": "O=C(Nc1cccc2[nH]ncc12)NC1CCc2cc(N3CCCCC3)ccc21", "note": "(stereo unspecified)", "values": [{"measurement": "IC50", "setting": "[1]", "result": 14, "unit": "nM"}]}
{"smiles": "CC(C)(C)c1ccc2c(c1)CC[C@H]2N/C(=N/C#N)Nc1cccc2[nH]ncc12", "values": [{"measurement": "IC50", "setting": "[1]", "result": 34, "unit": "nM"}]}
{"smiles": "CC(C)(C)c1ccc2c(c1)CC(F)(F)C2NC(=O)Nc1cccc2[nH]ncc12", "note": "(stereo unspecified)", "values": [{"measurement": "IC50", "setting": "[1]", "result": 216, "unit": "nM"}]}
{"smiles": "O=C(Nc1cccc2[nH]ncc12)NC1CCc2ccccc21", "note": "(stereo unspecified)", "values": [{"measurement": "IC50", "setting": "[1]", "result": 151, "unit": "nM"}]}
{"smiles": "O=C(Nc1cccc2[nH]ncc12)NC1CCc2c1cccc2C(F)(F)F", "note": "(stereo unspecified)", "values": [{"measurement": "IC50", "setting": "[1]", "result": 10, "unit": "nM"}]}
{"smiles": "CC(C)(CO)c1ccc2c(c1)CC[C@H]2NC(=O)Nc1cccc2[nH]ncc12", "values": [{"measurement": "IC50", "setting": "[1]", "result": 127, "unit": "nM"}]}
{"smiles": "O=C(Nc1cccc2[nH]ncc12)NC1CCc2cc(Br)ccc21", "note": "(stereo unspecified)", "values": [{"measurement": "IC50", "setting": "[1]", "result": 9, "unit": "nM"}]}
{"smiles": "O=C(Nc1cccc2[nH]ncc12)NC1CCc2c1cccc2N1CCCC1", "note": "(stereo unspecified)", "values": [{"measurement": "IC50", "setting": "[1]", "result": 21, "unit": "nM"}]}
{"smiles": "CC(C)(C)c1ccc2c(c1)CC(NC(=O)Nc1cccc3[nH]ncc13)C2", "note": "(stereo unspecified)", "values": [{"measurement": "IC50", "setting": "[1]", "result": 10, "unit": "nM"}]}
{"smiles": "Cc1ccc2c(c1)CCC2NC(=O)Nc1cccc2[nH]ncc12", "note": "(stereo unspecified)", "values": [{"measurement": "IC50", "setting": "[1]", "result": 11, "unit": "nM"}]}
{"smiles": "O=C(Nc1cccc2[nH]ncc12)NC1CCc2cc(C3CC3)ccc21", "note": "(stereo unspecified)", "values": [{"measurement": "IC50", "setting": "[1]", "result": 4, "unit": "nM"}]}
{"smiles": "O=C(Nc1cccc2[nH]ncc12)NC1CCc2c1cccc2N1CCC(C(F)(F)F)CC1", "note": "(stereo unspecified)", "values": [{"measurement": "IC50", "setting": "[1]", "result": 7, "unit": "nM"}]}
{"smiles": "O=C(Nc1cccc2[nH]ncc12)NC1CCc2c1ccc(F)c2N1CCOCC1", "note": "(stereo unspecified)", "values": [{"measurement": "IC50", "setting": "[1]", "result": 5, "unit": "nM"}]}
{"smiles": "O=C(Nc1cccc2[nH]ncc12)NC1CCc2c1cccc2N1CCCCC1", "note": "(stereo unspecified)", "values": [{"measurement": "IC50", "setting": "[1]", "result": 10, "unit": "nM"}]}
{"smiles": "O=C(Nc1cccc2[nH]ncc12)NC1CCc2c1cccc2N1CCOCC1", "note": "(stereo unspecified)", "values": [{"measurement": "IC50", "setting": "[1]", "result": 65, "unit": "nM"}]}
{"smiles": "O=C(Nc1cccc2[nH]ncc12)NC1CCc2cc(F)ccc21", "note": "(stereo unspecified)", "values": [{"measurement": "IC50", "setting": "[1]", "result": 52, "unit": "nM"}]}
{"smiles": "CN1CCC(NC(=O)Nc2cccc3[nH]ncc23)c2ccc(C(F)(F)F)cc21", "note": "(stereo unspecified)", "values": [{"measurement": "IC50", "setting": "[1]", "result": 7, "unit": "nM"}]}
{"smiles": "O=C(Nc1cccc2[nH]ncc12)NC1CCOc2cc(C(F)(F)F)ccc21", "note": "(stereo unspecified)", "values": [{"measurement": "IC50", "setting": "[1]", "result": 11, "unit": "nM"}]}
{"smiles": "O=C(Nc1cccc2[nH]ncc12)NC1CCc2cccnc21", "note": "(stereo unspecified)", "values": [{"measurement": "IC50", "setting": "[1]", "result": 1350, "unit": "nM"}]}
{"smiles": "CC(C)(C)c1ccc2c(c1)CC[C@H]2NC(=O)Nc1cccc2[nH]ncc12", "note": "[ABT-102]", "values": [{"measurement": "bioavailability", "setting": "[2]", "result": 25, "unit": "%"}, {"measurement": "Cmax", "setting": "[3]", "result": 650, "unit": "ng/mL"}, {"measurement": "bioavailability", "setting": "[4]", "result": 60, "unit": "%"}, {"measurement": "Cmax", "setting": "[5]", "result": 250, "unit": "ng/mL"}, {"measurement": "bioavailability", "setting": "[6]", "result": 70, "unit": "%"}, {"measurement": "bioavailability", "setting": "[7]", "result": 22, "unit": "%"}, {"measurement": "Kp", "setting": "[8]", "result": 0.32}, {"measurement": "half-life", "setting": "[9]", "result": 102, "unit": "min"}, {"measurement": "Papp", "setting": "[10]", "result": "> 18", "unit": "×10⁻⁶ cm/s"}, {"measurement": "Cmax", "setting": "[11]", "result": 310, "unit": "ng/mL"}, {"measurement": "Vd", "setting": "[12]", "result": 1.6, "unit": "L/kg"}, {"measurement": "half-life", "setting": "[13]", "result": 114, "unit": "min"}, {"measurement": "Cmax", "setting": "[14]", "result": 390, "unit": "ng/mL"}, {"measurement": "Solubility", "setting": "[15]", "result": 57.3, "unit": "ng/mL"}, {"measurement": "Solubility", "setting": "[16]", "result": 102, "unit": "ng/mL"}, {"measurement": "ED50", "setting": "Rattus norvegicus [17]", "result": 20, "unit": "µmol/kg"}, {"measurement": "Vd", "setting": "[18]", "result": 1.7, "unit": "L/kg"}, {"measurement": "half-life", "setting": "[19]", "result": 108, "unit": "min"}, {"measurement": "Vd", "setting": "[20]", "result": 2.8, "unit": "L/kg"}, {"measurement": "Activity", "setting": "Rattus norvegicus [21]", "result": "Active"}]}
